Values after ≈ are worked out from the molar mass of the structure shown. Like-named read-outs stand apart in the source and are kept apart here.
Assays:
Format in all cases: in vivo
[1] = system: common mosquito (Culex pipiens pallens); assay: Test Example 1: common mosquito larvae in diluted emulsifiable concentrate, mortality and emergence inhibition; details: Culex pipiens; for mortality at 3.5 ppm: 24 h; for pest or weed control at 3.5 ppm: counted when all pupae of no treatment group had emerged, read-out: Inhibitory ratio of emergence
Description: The emulsifiable concentrates of the following present compounds obtained according to Formulation example 2 were each diluted with water so as to obtain respective aqueous solutions containing 3.5 ppm of said compounds, respectively. One hundred ml of thus diluted aqueous solutions were poured into respective polyethylene cups of 180 ml volume, and 20 of the last instar larvae of common mosquito (Culex pipiens pallens) were liberated thereto. After one day, the dead or alive of the larvae were examined.
Thereafter, the feed was added to respective cups and the number of emerged pupae of the respective cups was counted when all the pupae of no treatment group had emerged to calculate the inhibitory ratios of the emergence.
The mortality and the inhibitory ratio of the emergence are shown according to the following three criteria: • mortality: A; 90% or more, • B; less than 90% to 10%, • C; less than 10%. • inhibitory: A; 90% or more, ratio of • emergence B; less than 90% to 80% • C; less than 80%.

[2] = system: tobacco cutworms (Spodoptera litura); assay: Test Example 2: tobacco cutworm larvae on treated artificial feed; details: Spodoptera litura, 144 h
Excerpt: The emulsifiable concentrates of the following present compounds obtained according to Formulation example 2 were each diluted with water to obtain respective 667 times dilution aqueous solutions (corresponding to 150 ppm) containing said compounds, respectively. Two ml of thus diluted solutions were impregnated into the artificial feeds (13 g) for tobacco cutworms (Spodoptera litura) and thus prepared feeds were placed in polyethylene cups of 11 cm in diameter, respectively. Ten of the 4th instar larvae were liberated thereon.
Six days after, the dead and alive of the larvae were examined to calculate the mortality (two replications).

[3] = system: brown rice planthoppers (Nila^parvata luqens); assay: Test Example 7: spray on potted rice plants, brown rice planthopper, residual effect; details: 20 h
Description: The emulsifiable concentrates of the following compounds and control compounds obtained according to Formulation example 2 were each diluted with water one thousand times (corresponding to 100 ppm) and each of thus prepared solutions was sprayed at the rate of 20 ml/2 pots to the rice plant seedlings planted in Wagner pots having a surface area of one ten thousandth are. After air-drying, the treated plants were covered with the iron wire cages, and about 15 adults of brown rice planthoppers (Nila^parvata luqens) were liberated thereto. Further, about 15 adults thereof were also liberated thereto 4 days after the application to examine the residual effects. Twenty hours after each liberation, the dead and alive adults were examined to calculate the mortality.

[4] = system: carmine spider mite (Tetranychus cinnabarinus); assay: Test Example 8: carmine spider mite on potted kidney bean, degree of damage; design: key: -: No damage is observed.; +: Slight damage is observed.; ++: The same damage as in the untreated plot is observed; details: 500 ppm spray 10 ml/pot plus 2 ml soil treatment; after 8 days
Description: The female adults of carmine spider mite (Tetranychus cinnabarinus) were put at a rate of 10 adults/leaf on the leaves of potted kidney bean (at the primordial leaf stage) which had elapsed 7 days after sowing, and placed in a constant-temperature room kept at 25°C. After 6 days, the 200-fold aqueous dilute solutions (corresponding to 500 ppm), prepared from the emulsifiable concentrates of the following present compounds and control compounds prepared according to Formulation example 2, were each sprayed at a rate of 10 ml/pot on a turn table. At the same time, the soil in the pot was treated with 2 ml of each aqueous solution. After 8 days, the degree of damage of the plant by the mite was examined.
Criteria of the effect: • - : No damage is observed. • + : Slight damage is observed. • ++: The same damage as in the untreated plot is observed.

[5] = system: resistant strain of green rice leafhopper (Nephotetix cincticeps); assay: Test Example 3: rice seedling dip test, resistant green rice leafhopper; details: Nephotettix cincticeps, 24 h, rice seedlings dipped 1 minute; adults of resistant strain; after one day; read-out: LC50 value (ppm)
Description: The emulsifiable concentrates of the following present compounds and control compounds obtained according to Formulation example 2 were each diluted with water to a prescribed concentration, and rice seedlings (about 12 cm in length) were dipped for 1 minute in the resulting aqueous dilute solutions. After air-drying, the seedlings were placed in test tube, and 10 adults of a resistant strain of green rice leafhopper (Nephotetix cincticeps) were liberated in the tube. After one day, the dead and alive of the adults were examined to obtain LC50 (50% lethal concentration)(two replications).

[6] = system: rice stem borer (Chilo suppressalis); assay: Test Example 5: rice stem borer larvae on treated artificial feed; details: 1 ml solution in artificial feed, larvae 10 days old, read-out: LC50 value (ppm)
Excerpt: The emulsifiable concentrates of the following present compounds and control compounds obtained according to Formulation example 2 were each diluted with water to a prescribed concentration, and one ml each of thus prepared solutions was impregnated into the artificial feeds for rice stem borer (Chilo suppressalis) which had been previously prepared in polyethylene cups of 5.5 cm in diameter, respectively. Ten of the larvae of the 10 days old were liberated thereon. The dead and alive larvae were examined to obtain LC50 value (50% lethal concentration) (two replications).

[7] = system: houseflies (Musca domestica) of WHO strains; assay: Test Example 6: housefly filter paper and sucrose bait test; details: 0.7 ml on filter paper with sucrose bait, adult females, after 48 hours, read-out: LC50 value (ppm)
Description: On the bottom of a polyethylene cup of 5.5 cm- in diameter was placed a piece of filter paper of the same size as the bottom, and 0.7 ml of a test solution, prepared by diluting the emulsifiable concentrates of the following present compounds and control compounds prepared according to Formulation example 2 to a prescribed concentration with water, was added dropwise to the filter paper. Thirty milligrams of sucrose were uniformly placed on the filter paper as bait. Thereafter, 10 adult female houseflies (Musca domestica) of WHO strains were liberated in the cup, which was then covered with a lid. After 48 hours, the dead and alive were examined to obtain LC50 value (50% lethal concentration) (two replications).

[8] = system: brown rice planthopper (Nila^parvata luqens); assay: Test Example 4: rice seedling dip test, brown rice planthopper; details: 24 h; rice seedlings dipped 1 minute; adults; after one day; read-out: LC50 value (ppm)
Description: The emulsifiable concentrates of the-following present compounds and control compounds obtained according to Formulation example 2 were each diluted with water to a prescribed concentration, and the rice seedlings (about 12 cm in length) were dipped for 1 minute in the resulting aqueous dilute solutions. After air-drying, the seedlings were placed in a test tube, and 10 adults of brown rice planthopper (Nila^parvata luqens) were liberated in the tube. After one day, the dead and alive of the adults were examined to obtain LC50 value (50% lethal concentration)(two replications).

[9] = 3.5 ppm, 20 last instar larvae, after one day, read-out: Mortality
[10] = 150 ppm solution, 2 ml in 13 g artificial feed, 4th instar larvae, six days after, read-out: Mortality (%)
[11] = 100 ppm spray, 20 ml/2 pots, residual effect, twenty hours after liberation, read-out: Mortality (%) liberated 4 days after application
[12] = 100 ppm spray, 20 ml/2 pots, twenty hours after liberation, read-out: Mortality (%) liberated just after air-drying

Structure (SMILES)	mortality at 3.5 ppm [1, 9]	pest or weed control at 3.5 ppm ([1]; 3.5 ppm)	mortality at 150 ppm [2, 10]	mortality at 100 ppm [3, 11]	mortality at 100 ppm [3, 12]	Degree of damage [4]	LC50 [5]	LC50 [6]	LC50 [7]	mortality at 3.5 ppm [1]	mortality at 150 ppm [2]	mortality at 100 ppm ([3]; read-out: Mortality (%) liberated 4 days after application)	mortality at 100 ppm ([3]; read-out: Mortality (%) liberated just after air-drying)	LC50 [8]
C=CC(C)(CCCc1cccc(Oc2ccccc2)c1)c1ccc(OCC)cc1 (stereo not drawn) [(1), 3-(4-ethoxyphenyl)-3-methyl-6-(3-phenoxyphenyl)-l-hexene]	> 90%	> 90%	100%	100%	100%	- ~ +								
C#CC(C)(CCCc1ccc(F)c(Oc2ccccc2)c1)c1ccc(OC(F)F)cc1 (stereo not drawn) [(6)]	> 90%	> 90%	100%				36 µg/mL (≈ 84.8 µM)	1.9 µg/mL (≈ 4.48 µM)	15 µg/mL (≈ 35.3 µM)					
C#CC(C)(CCCc1cccc(Oc2ccccc2)c1)c1ccc(OCC=C)cc1 (stereo not drawn) [(7), 3-(4-allyloxyphenyl)-3-methyl-6-(3-phenoxyphenyl)-1-hexyne]		> 90%				-				10 to 90%	100%	93%	100%	
C#CC(C)(CCCc1ccc(F)c(Oc2ccccc2)c1)c1ccc(F)cc1 (stereo not drawn) [(9)]	> 90%	> 90%	100%				49 µg/mL (≈ 130 µM)	4.2 µg/mL (≈ 11.2 µM)						
C#CC(C)(CCCc1ccc(F)c(Oc2ccccc2)c1)c1ccc(OCC)c(Cl)c1 (stereo not drawn) [(11)]	> 90%	> 90%	100%				49 µg/mL (≈ 112 µM)	2.3 µg/mL (≈ 5.26 µM)	12 µg/mL (≈ 27.5 µM)					
C#CC(C)(CCCc1ccc(F)c(Oc2ccccc2)c1)c1ccc(C(F)(F)F)cc1 (stereo not drawn) [(13)]	> 90%	> 90%	100%			-	10 µg/mL (≈ 23.4 µM)							
C#CC(C)(CCCc1cccc(Oc2ccccc2)c1)c1ccc(OC(F)F)cc1 (stereo not drawn) [(17), 3-(4-difluoromethoxyphenyl)-3-methyl-6-(3-phenoxyphenyl)-l-hexyne]	> 90%	> 90%	100%				68 µg/mL (≈ 167 µM)	3.6 µg/mL (≈ 8.86 µM)						
C#CC(C)(CCCc1cccc(Oc2ccccc2)n1)c1ccc(OCC)cc1 (stereo not drawn) [(18), 3-(4-ethoxyphenyl)-3-methyl-6-(6-phenoxypyridin-2-yl)-l-hexyne]	> 90%	> 90%	100%			- ~ +								
C#CC(C)(CCCc1ccc(F)c(Oc2ccccc2)n1)c1ccc(OCC)cc1 (stereo not drawn) [(20)]	> 90%	> 90%	100%			- ~ +	74 µg/mL (≈ 183 µM)							25 µg/mL (≈ 62 µM)
C#CC(C)(CCCc1ccc(F)c(Nc2ccccc2)c1)c1ccc(OCC)cc1 (stereo not drawn) [(21)]	> 90%	> 90%	100%				24 µg/mL (≈ 59.8 µM)	1.5 µg/mL (≈ 3.74 µM)						15 µg/mL (≈ 37.4 µM)
C#CC(C)(CCCc1ccc(F)c(Oc2ccc(Cl)cc2)c1)c1ccc(OCC)cc1 (stereo not drawn) [(34)]	> 90%	> 90%	100%				18 µg/mL (≈ 41.2 µM)	4.2 µg/mL (≈ 9.61 µM)						
C#CC(C)(CCCc1ccc(F)c(Oc2ccccc2)c1)c1ccc(CC)cc1 (stereo not drawn) [(39)]	> 90%	> 90%	100%			- ~ +	21 µg/mL (≈ 54.3 µM)		17 µg/mL (≈ 44 µM)					
C#CC(CCCc1ccc(F)c(Oc2ccccc2)c1)c1ccc(OCC)cc1 (stereo not drawn) [(43)]	> 90%	> 90%	100%			- ~ +	74 µg/mL (≈ 190 µM)							
CCOc1ccc(C(C)(C)COCc2cccc(Oc3ccccc3)c2)cc1 [(B), reference compound]				65%	10%	- ~ ++		7.4 µg/mL (≈ 19.7 µM)	28 µg/mL (≈ 74.4 µM)					110 µg/mL (≈ 292 µM)
Cc1cc(Cl)ccc1N=CN(C)C [(E), Chlordimeform, reference compound]						- ~ +								

From patent EP0193189A1, “Novel compound, its production and insecticidal and acaricidal composition containing it as an active ingredient” (SUMITOMO CHEMICAL COMPANY, LIMITED, priority 1985, dated 1986)
